The values that follow are results of earlier work, collected in US20240207252A1, “AEROSOL-FORMING SUBSTRATE AND AEROSOL-GENERATING SYSTEM” (SHENZHEN FIRST UNION TECHNOLOGY CO., LTD., priority 2021, published 2024).

For the series the following is noted: single oral administration.

In the case of `COC(=O)[C@@H]1[C@H]2C[C@H]3c4[nH]c5ccccc5c4CCN3C[C@@H]2CC[C@@H]1O` [yohimbine, methyl 17alpha-hydroxyyohimban-16alpha-carboxylate], the Tmax result is given as “less than 1 h” and the t1/2 result is given as “less than 1 h”.
